Activity calls are given as the source filed them. No cut-off for these calls is given here.
Columns and labels:
Cruzipain = Cruzipain (Trypanosoma cruzi, UniProt P25779)
Description: Inhibition of Trypanosoma cruzi Cruzipain

Cathepsin B = Cathepsin B (Homo sapiens, UniProt P07858)
Description: Inhibition of human Cat B in HepG2 cells

Procathepsin L = Procathepsin L (Homo sapiens, UniProt P07711)
Description: Inhibition of human Cat L

Cathepsin K = target: T1, Cathepsin K (Homo sapiens, UniProt P43235); assay: Inhibition of human Cat K expressed in Ramos cells; assay type: cell-based
T1 sequence (P43235 whole entry): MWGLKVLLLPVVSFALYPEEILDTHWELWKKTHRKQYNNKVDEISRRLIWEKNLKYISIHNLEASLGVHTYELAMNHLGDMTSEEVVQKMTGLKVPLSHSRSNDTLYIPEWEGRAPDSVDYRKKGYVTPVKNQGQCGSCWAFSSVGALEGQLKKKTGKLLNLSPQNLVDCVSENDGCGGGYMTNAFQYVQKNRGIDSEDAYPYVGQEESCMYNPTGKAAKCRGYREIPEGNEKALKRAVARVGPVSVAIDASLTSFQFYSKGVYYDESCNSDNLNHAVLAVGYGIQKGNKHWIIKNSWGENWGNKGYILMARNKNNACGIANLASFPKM

Cathepsin L2 = target: T2, Cathepsin L2 (Homo sapiens, UniProt O60911); assay: Inhibition of human Cat V
T2 sequence (O60911 whole entry): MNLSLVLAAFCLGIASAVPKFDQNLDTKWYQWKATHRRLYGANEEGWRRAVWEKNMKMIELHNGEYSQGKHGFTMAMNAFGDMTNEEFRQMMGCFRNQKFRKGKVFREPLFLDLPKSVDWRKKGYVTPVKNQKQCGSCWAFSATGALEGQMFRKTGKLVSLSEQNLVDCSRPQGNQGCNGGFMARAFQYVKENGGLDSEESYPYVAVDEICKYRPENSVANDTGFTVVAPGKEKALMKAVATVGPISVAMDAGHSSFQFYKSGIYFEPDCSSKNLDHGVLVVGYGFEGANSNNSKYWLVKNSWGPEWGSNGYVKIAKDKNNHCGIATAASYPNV

Cathepsin S = Cathepsin S (Homo sapiens, UniProt P25774); assay: Inhibition of human Cat S expressed in Ramos cells; assay type: cell-based
Sequence of Cathepsin S (P25774 whole entry): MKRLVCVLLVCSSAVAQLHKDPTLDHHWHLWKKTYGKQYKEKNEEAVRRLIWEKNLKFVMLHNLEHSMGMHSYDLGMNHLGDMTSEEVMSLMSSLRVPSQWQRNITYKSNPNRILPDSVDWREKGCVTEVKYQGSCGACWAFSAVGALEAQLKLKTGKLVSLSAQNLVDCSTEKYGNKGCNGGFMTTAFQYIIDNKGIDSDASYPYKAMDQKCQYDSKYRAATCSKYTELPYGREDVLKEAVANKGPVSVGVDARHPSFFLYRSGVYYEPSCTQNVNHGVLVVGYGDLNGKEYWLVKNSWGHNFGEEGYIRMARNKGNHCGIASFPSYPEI

[1] = Half life in rat; assay type: ADME, organism-based; settings: in vivo
[2] = Oral bioavailability in rat; assay type: ADME, organism-based; settings: in vivo
[3] = Half life in dog; assay type: ADME, organism-based, Canis lupus familiaris; settings: in vivo
[4] = Oral bioavailability in dog; assay type: ADME, organism-based, Canis lupus familiaris; settings: in vivo
[5] = Half life in mouse; assay type: ADME, organism-based; settings: in vivo
Mus musculus = species: Mus musculus; assay: Toxicity in Trypanosoma cruzi infected mouse; assay type: organism-based; settings: in vivo
Trypanosoma cruzi = assay: Antimicrobial activity against Trypanosoma cruzi infected in mouse assessed as reduction in parasitemia; assay type: functional, organism-based

Sequence of Cruzipain (P25779 whole entry): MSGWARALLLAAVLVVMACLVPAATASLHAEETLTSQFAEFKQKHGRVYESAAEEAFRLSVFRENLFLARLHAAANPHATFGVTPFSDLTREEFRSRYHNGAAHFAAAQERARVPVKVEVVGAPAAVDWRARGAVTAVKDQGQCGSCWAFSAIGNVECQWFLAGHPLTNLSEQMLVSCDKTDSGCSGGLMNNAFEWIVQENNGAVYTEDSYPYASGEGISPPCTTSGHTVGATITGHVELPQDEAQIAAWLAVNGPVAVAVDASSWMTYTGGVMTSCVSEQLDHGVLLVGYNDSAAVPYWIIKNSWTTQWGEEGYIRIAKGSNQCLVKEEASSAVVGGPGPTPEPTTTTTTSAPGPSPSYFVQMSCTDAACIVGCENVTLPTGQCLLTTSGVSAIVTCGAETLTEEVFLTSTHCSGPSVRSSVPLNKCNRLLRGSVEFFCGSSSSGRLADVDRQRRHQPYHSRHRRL
Sequence of Procathepsin L (P07711 whole entry): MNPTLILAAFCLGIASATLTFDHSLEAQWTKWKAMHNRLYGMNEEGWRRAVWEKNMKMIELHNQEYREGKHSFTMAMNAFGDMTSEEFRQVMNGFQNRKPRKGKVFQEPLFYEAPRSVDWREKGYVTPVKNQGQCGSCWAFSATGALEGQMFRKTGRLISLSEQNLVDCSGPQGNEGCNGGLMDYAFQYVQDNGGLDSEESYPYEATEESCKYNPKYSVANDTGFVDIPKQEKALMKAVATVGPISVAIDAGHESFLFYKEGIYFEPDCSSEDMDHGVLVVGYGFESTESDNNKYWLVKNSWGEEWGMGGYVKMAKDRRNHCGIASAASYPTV

Row | IC50 (Cruzipain) [nM] | IC50 (Cathepsin B) [nM] | IC50 (Procathepsin L) [nM] | SMILES | other results
1 | 7 | 577 | 458 | CS(=O)(=O)c1ccc(-c2ccc([C@H](N[C@@H](Cc3ccccc3)C(=O)N[C@H](C#N)Cc3ccccc3)C(F)(F)F)cc2)cc1 | 
2 |  | 79 | 219 | CC(C)(F)C[C@H](N[C@@H](c1ccc(-c2ccc(S(C)(=O)=O)cc2)cc1)C(F)(F)F)C(=O)N[C@H](C#N)Cc1ccncc1 | 
3 | 380 | > 10000 | > 10000 | CC(C)(C)[C@H](N[C@@H](c1ccc(-c2ccc(S(C)(=O)=O)cc2)cc1)C(F)(F)F)C(=O)N[C@H](C#N)Cc1ccccc1 | 
4 |  | 48 | 1090 | CC(C)(F)C[C@H](N[C@@H](c1ccc(-c2ccc([C@@H](O)C(F)F)cc2)cc1)C(F)(F)F)C(=O)N[C@H](C#N)Cc1ccccc1 | 
5 | 510 | 397 | > 10000 | CC(C)(F)C[C@H](N[C@@H](c1ccc(-c2ccc(S(C)(=O)=O)cc2)cc1)C(F)(F)F)C(=O)N[C@H](C#N)CCc1ccccc1 | 
6 |  | 27 | 426 | CC(C)(F)C[C@H](N[C@@H](c1ccc(-c2ccc(C3(C(N)=O)CC3)cc2)cc1)C(F)(F)F)C(=O)N[C@H](C#N)Cc1ccccc1 | 
7 |  | 383 | 42 | CS(=O)(=O)c1ccc(-c2ccc([C@H](N[C@@H](CC(Cl)Cl)C(=O)N[C@H](C#N)Cc3ccccc3)C(F)(F)F)cc2)cc1 | 
8 |  | 231 | 5250 | CS(=O)(=O)c1ccc(-c2ccc([C@H](N[C@@H](CC3CC3)C(=O)N[C@H](C#N)Cc3ccccc3)C(F)(F)F)cc2)cc1 | 
9 |  | 260 | 711 | CC(C)(F)C[C@H](N[C@@H](c1ccc(-c2ccc(S(C)(=O)=O)cc2)cc1)C(F)(F)F)C(=O)N[C@@H](C#N)Cc1ccc(C#N)cc1F | 
10 |  | 143 | 121 | CC(C)[C@H](N[C@@H](c1ccc(-c2ccc(S(C)(=O)=O)cc2)cc1)C(F)(F)F)C(=O)N[C@H](C#N)Cc1ccc(C#N)cc1F | IC50 (Cathepsin K): 0.9 nM; IC50 (Cathepsin L2): 28 nM; IC50 (Cathepsin S): 169 nM
11 | > 10000 | > 10000 | > 10000 | CC(C)(F)C[C@H](N[C@@H](c1ccc(-c2ccc(S(C)(=O)=O)cc2)cc1)C(F)(F)F)C(=O)N[C@H](C#N)C1(c2ccccc2)CC1 | 
12 |  |  | 436 | CC(C)(F)C[C@H](N[C@@H](c1ccc(-c2ccc(-c3ccncc3)cc2)cc1)C(F)(F)F)C(=O)N[C@H](C#N)Cc1ccccc1 | 
13 | 7 | 68 | 751 | CS(=O)(=O)c1ccc(-c2ccc([C@H](N[C@H](C(=O)N[C@H](C#N)Cc3ccccc3)C3CC3)C(F)(F)F)cc2)cc1 | 
14 | 130 |  | 2630 | CC(C)(F)C[C@H](N[C@@H](c1ccc(-c2ccc(S(C)(=O)=O)cc2)cc1)C(F)(F)F)C(=O)N[C@H](C#N)CC(F)(F)F | 
15 |  | 87 | 1060 | CC(C)[C@H](N[C@@H](c1ccc(-c2ccc([C@@H](O)C(F)F)cc2)cc1)C(F)(F)F)C(=O)N[C@H](C#N)Cc1ccc(C#N)cc1F | IC50 (Cathepsin K): 2 nM; IC50 (Cathepsin L2): 69 nM; half-life [1]: 312 min; bioavailability [2]: 20%; half-life [3]: 276 min; bioavailability [4]: 30%; IC50 (Cathepsin S): 322 nM
16 |  | 122 | 966 | CC(C)(F)C[C@H](N[C@@H](c1ccc(-c2ccc(S(C)(=O)=O)cc2)cc1)C(F)(F)F)C(=O)N[C@H](C#N)Cc1ccccc1 | half-life [5]: < 30 min
17 |  | 9 | 49 | CC(C)(F)C[C@H](N[C@@H](c1ccc(-c2ccc(S(C)(=O)=O)cc2)cc1)C(F)(F)F)C(=O)N[C@H](C#N)Cc1ccc(C#N)cc1F | 
18 |  | 41 | 98 | CC(C)[C@H](N[C@@H](c1ccc(-c2ccc(C3(C(N)=O)CC3)cc2)cc1)C(F)(F)F)C(=O)N[C@H](C#N)Cc1ccc(C#N)cc1F | IC50 (Cathepsin K): 3 nM; IC50 (Cathepsin L2): 79 nM; IC50 (Cathepsin S): 408 nM
19 | 0.2 | 163 | 117 | CC(C)C[C@H](N[C@@H](c1ccc(-c2ccc(S(C)(=O)=O)cc2)cc1)C(F)(F)F)C(=O)N[C@H](C#N)Cc1ccccc1 | 
20 | 33 | 59 | 379 | CC(C)(F)C[C@H](N[C@@H](c1ccc(-c2cn[nH]c2)cc1)C(F)(F)F)C(=O)N[C@H](C#N)Cc1ccccc1 | 
21 | 1.8 |  |  | CC(C)C[C@H](N[C@@H](c1ccc(-c2ccc(N3CCNCC3)cc2)cc1)C(F)(F)F)C(=O)NCC#N | Activity (Mus musculus): Non-toxic; Activity (Trypanosoma cruzi): Active
22 |  | 64 | 1080 | CC(C)(F)C[C@H](N[C@@H](c1ccc(-c2ccc(C3(C(=O)N4CCOCC4)CC3)cc2)cc1)C(F)(F)F)C(=O)N[C@H](C#N)Cc1ccccc1 | 
23 |  | 433 | 631 | CC(C)[C@H](N[C@@H](c1ccc(-c2ccc(S(C)(=O)=O)cc2)cc1)C(F)(F)F)C(=O)N[C@H](C#N)Cc1ccccc1 | 

From ChEMBL document CHEMBL1287737, “Identification of potent and reversible cruzipain inhibitors for the treatment of Chagas disease” (Bioorg Med Chem Lett, 2010)
